From US10253080B2, “Glucagon-like-peptide-2 (GLP-2) analogues” (Zealand Pharma A/S, priority 2012, dated 2019)
Non-standard residues stand in square brackets, D forms with d. Residues, ends and D or L forms follow the SMILES beside them. Aib = CC(C)(N)C(=O)O

T1: human GLP-2 receptor (Homo sapiens, UniProt O95838, D470N)
T1 construct: host or cells: HEK293
T1 sequence (O95838 1-553 D470N): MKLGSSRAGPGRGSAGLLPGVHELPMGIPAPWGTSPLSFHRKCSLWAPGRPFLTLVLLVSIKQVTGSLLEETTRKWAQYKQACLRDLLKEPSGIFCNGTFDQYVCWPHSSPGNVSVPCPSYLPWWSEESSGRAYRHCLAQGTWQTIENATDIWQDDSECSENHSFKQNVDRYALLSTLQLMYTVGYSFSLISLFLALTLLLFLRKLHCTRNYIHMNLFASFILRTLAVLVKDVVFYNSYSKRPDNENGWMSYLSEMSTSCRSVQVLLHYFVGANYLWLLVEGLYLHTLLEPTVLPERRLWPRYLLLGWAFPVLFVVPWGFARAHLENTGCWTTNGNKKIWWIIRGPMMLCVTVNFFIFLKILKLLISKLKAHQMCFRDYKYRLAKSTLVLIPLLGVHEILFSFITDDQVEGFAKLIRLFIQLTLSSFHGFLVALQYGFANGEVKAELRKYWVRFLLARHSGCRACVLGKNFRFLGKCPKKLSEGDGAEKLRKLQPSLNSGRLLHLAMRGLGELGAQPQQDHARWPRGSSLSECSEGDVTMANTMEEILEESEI


How the values were obtained:
human GLP-2 receptor = molecular target: T1, human GLP-2 receptor; test: GLP-2 receptor efficacy assay (cAMP AlphaScreen); assay type: cell-based; details: HEK293 cells expressing hGLP-2 receptor, cAMP response; read-out: GLP-2R EC50
Experimental: Test compounds inducing an increase in the intracellular level of cAMP were tested in this assay, and the response normalized relative to a positive and negative control to calculate the EC50 and maximal response from the concentration response curve.
The hGLP2-R was purchased from MRC-geneservice, Babraham, Cambridge as an image clone: 5363415 (11924-117). For subcloning into an mammalian expression vector, primers for subcloning were obtained from DNA-Technology, Risskov, Denmark. The 5′ and 3′ primers used for the PCR reaction include terminal restriction sites for cloning and the context of the 5′ primer is modified to a Kozak consensus without changing the sequence of the product encoded by the ORF. A standard PCR reaction was run using image clone 5363415 (11924-117) as a template with the above mentioned primers and Polymerase Herculase II Fusion in a total vol, of 50 μl. The generated PCR product was purified using GFX PCR and Gel band purification kit, digested with restriction enzymes and cloned into the mammalian expression vector using Rapid DNA Ligation Kit. Ligation reaction was transformed to XL10 Gold Ultracompetent cells and colonies were picked for DNA production using Endofree Plasmid maxi kit. Subsequent sequence analysis was conducted by MWG Eurofins, Germany.
HEK293 cells were transfected using the Lipofectamine PLUS transfection method. The day before transfection, HEK293 cells were seeded in two T75 flasks at a density of 2×10^6 cells/T75 flask in cell culturing medium without antibiotics. On the day of transfection, cells were washed with 1×DPBS and medium was replaced with Optimem to a volume of 5 mL/T75 flask before addition of Lipofectamine-plasmid complexes were added gently and drop wise to the cells in T75 flasks and replaced with growth medium after 3 hours and again to growth medium supplemented with 500 μg/mL G418 after 24 hours. After 4 weeks in G418 selection, colonies were picked and tested in a functional assay. One colony was selected for use in compound profiling.
(§1) Data from test compounds eliciting an increase in the intracellular level of cAMP were normalized relative to the positive and negative control (vehicle) to calculate the EC50 and maximal response from the concentration response curve.

human GLP-1 receptor = molecular target: T2, human GLP-1 receptor (Homo sapiens, UniProt P43220); test: GLP-1 receptor efficacy assay (cAMP AlphaScreen); assay type: cell-based; details: HEK293 cells expressing human GLP-1R, cAMP response
T2 construct: expressed in transfected cells; host or cells: HEK293
Experimental: The 5′-end primers additionally encoded a near Kozak consensus sequence to ensure efficient translation. […] 48 hours after transfection, cells were seeded for limited dilution cloning and selected with 1 mg/ml G418 in the culture medium.
as §1

[1] = Oral glucose tolerance test (OGTT) in normal mice; assay type: in vivo, C57BL/6J male mice; details: single SC dose 1 h before 2 g/kg oral glucose; vs vehicle; FIG. 2
Experimental: Normal chow-fed C57BL/6J male mice were used. The mice were kept in standard housing conditions (light-, temperature-, and humidity-controlled room (12:12 h light-dark cycle, with lights on at 06.00-18.00 h; 24° C.; 50% relative humidity)), and each dosing group consisted of 10 animals.
Prior to the oral glucose tolerance test (OGTT), animals were fasted for 5 h. One hour before glucose challenge (time t=−60 min) baseline blood glucose was measured. Immediately after the blood sample, the animals were dosed once subcutaneously with compound at the indicated amount or PBS (vehicle). One hour later at t=0 min, a 2 g/kg oral gavage of glucose (0.4 g/ml in water diluted from glucose SAD […]; dose volume 5 ml/kg) was given to the animals. After glucose administration, tail vein blood was drawn for glucose measurements at t=15, 30, 60, 120 min.

[2] = DPP IV degradation and renal clearance (Tavares et al. 2000); cited from earlier work
[3] = Effect on intestinal weight in normal rats; assay type: in vivo, Wistar male rats; details: SC once daily for four days, weighed day 5; FIG. 3
Experimental: Normal chow-fed Wistar male rats were used. The rats were kept in standard housing conditions (light-, temperature-, and humidity-controlled room (12:12 h light-dark cycle, with lights on at 06.00-18.00 h; 24° C.; 50% relative humidity)), and each dosing group consisted of 6 animals. Rats were dosed once daily via the subcutaneous route, for four days with compound at the indicated amount or PBS (vehicle). On day five, rats were sacrificed and small intestinal weight wet measured.

[4] = Effect in diet-induced obese mice (intestinal mass, glucose homeostasis); assay type: in vivo, C57BL/6J male mice; details: SC twice daily for 14 days
Experimental: Diet-induced obesity was generated by feeding C57BL/6J male mice with high fat diet (Research Diet 60% fat (D12492) Research Diet Inc., New Brunswick, USA). The mice were kept in standard housing conditions (light-, temperature-, and humidity-controlled room (12:12 h light-dark cycle, with lights on at 06.00-18.00 h; 24° C.; 50% relative humidity)).
The vehicle treated dosing group contained 8 animals and the compound 7 treated groups consisted of 12 animals/group. All animals were mock treated for 7 days (once daily, SC, 100 μl vehicle) to acclimatize the animals to handling and injections, followed by treatment (vehicle or compound 7) for 14 days (twice daily, SC, 5 ml/kg). Animals were fasted overnight (day 11-12) and blood was drawn for analysis of glucose and insulin. On day 14, animals were sacrificed and small and large intestines removed, washed and weighed.

[5] = molecular target: human GLP-2 receptor (hGLP2-R), splice variant rs17681684 (human, UniProt O95838); test: cell-based or functional assay

T2 sequence (P43220 24-463): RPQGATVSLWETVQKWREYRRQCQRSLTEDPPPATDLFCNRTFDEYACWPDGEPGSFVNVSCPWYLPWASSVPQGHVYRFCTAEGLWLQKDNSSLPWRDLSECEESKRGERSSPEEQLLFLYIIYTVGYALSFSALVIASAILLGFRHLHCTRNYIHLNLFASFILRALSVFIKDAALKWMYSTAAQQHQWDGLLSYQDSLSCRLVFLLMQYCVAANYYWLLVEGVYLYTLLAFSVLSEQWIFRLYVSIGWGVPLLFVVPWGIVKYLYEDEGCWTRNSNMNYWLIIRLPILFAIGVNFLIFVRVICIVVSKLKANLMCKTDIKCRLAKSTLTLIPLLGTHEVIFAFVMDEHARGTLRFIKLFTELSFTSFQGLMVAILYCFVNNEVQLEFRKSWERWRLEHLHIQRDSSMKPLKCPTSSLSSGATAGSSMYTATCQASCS

Row | Molecule | EC50 (human GLP-2 receptor) [nM] | EC50 (human GLP-1 receptor) [nM] | other results
1 | H-HGDGSFSDEMNTILDGQAARDFINWLIQTK-NH2 [Compound 3] | – | 9 | –
2 | H-HGDGSFSSEMNTILDSQAARDFINWLIQTKITD-OH [Compound 4] [listing 1 of 2 here] | – | 25 | –
3 | H-HGDGSFSSELATILDGKAARDFINWLIQTKITD-OH [Compound 7] [listing 1 of 2 here] | 0.2 | – | –
4 | H-HGEGTFTSDLSKQMESKAARDFIEWLIQTKITD-OH [Compound 6] | 0.2 | – | –
5 | H-HGEGTFTSDLSTILENKAARDFIEWLIQTKITD-OH [Compound 8] [listing 1 of 2 here] | – | 16 | –
6 | H-HGDGSFSSEMNTILDSQAARDFINWLIQTKITD-OH [Compound 4] [listing 2 of 2 here] | 0.06 | – | –
7 | H-HGEGTFTSDLSKQMEGQAVRDFIEWLIQTKITD-OH [Compound 5] [listing 1 of 2 here] | – | 1 | –
8 | H-HGEGTFTSDLSKQMEGQAVRDFIEWLIQTKITD-OH [Compound 5] [listing 2 of 2 here] | 0.2 | – | –
9 | His-Ala-Asp-Gly-Ser-Phe-Ser-Asp-Glu-Met-Asn-Thr-Ile-Leu-Asp-Asn-Leu-Ala-Ala-Arg-Asp-Phe-Ile-Asn-Trp-Leu-Ile-Gln-Thr-Lys-Ile-Thr-Asp [GLP-2(1-33)] | – | – | half life [2]: about 7 minutes
10 | H-HGDGSFSSELATILDGKAARDFINWLIQTKITD-OH [Compound 7] [listing 2 of 2 here] | – | 0.78 | small intestinal wet weight [3]: increased intestinal weight in a dose dependant manner; fasting blood glucose ([4]; overnight fast day 11-12, vs vehicle, FIG. 5A): reduced; fasting plasma insulin levels ([4]; overnight fast day 11-12, vs vehicle, FIG. 5B): reduced; small intestinal mass ([4]; vs vehicle, FIG. 4A): significantly increased; large intestinal mass ([4]; vs vehicle, FIG. 4B): significantly increased; HOMA-IR index ([4]; vs vehicle, FIG. 5C): lower HOMA-IR index than vehicle treated controls
11 | HDEFERHAEGTFTSDVSSYLEGQAAKEFIAWLVKGRG [GLP-1] | – | – | GLP-2R EC50 (nM), cAMP AlphaScreen [5]: > 1000 nM

Now from value to molecule, other results behind:

Row | EC50 (human GLP-2 receptor) [nM] | EC50 (human GLP-1 receptor) [nM] | Molecule | other results
12 | 0.1 | – | H-HGEGSFSSDLSTILEGKAARDFIEWLIQTKITD-OH [Compound 13] [listing 1 of 2 here] | –
13 | 0.2 | – | H-HGEGSFSSDLSTILENKAARDFIEWLIQTKITD-OH [Compound 9] [listing 1 of 2 here] | –
14 | – | 9.1 | H-HGEGSFSSDLSTILENKAARDFIEWLIQTKITD-OH [Compound 9] [listing 2 of 2 here] | –
15 | – | 0.07 | H-HGDGSFSDEMNTILDGQAARDFINWLIQTK-NH2 [Compound 12] | blood glucose response in OGTT [1]: significantly reduced the blood glucose response
16 | – | 0.03 | CC[C@H](C)[C@H](NC(=O)[C@H](Cc1ccccc1)NC(=O)[C@H](CC(=O)O)NC(=O)[C@H](CCCNC(=N)N)NC(=O)[C@H](C)NC(=O)[C@H](C)NC(=O)[C@H](CCCCN)NC(=O)CNC(=O)[C@H](CC(=O)O)NC(=O)[C@H](CC(C)C)NC(=O)[C@@H](NC(=O)[C@@H](NC(=O)[C@H](CC(N)=O)NC(=O)[C@H](CC(C)C)NC(=O)[C@H](CCC(=O)O)NC(=O)[C@H](CC(=O)O)NC(=O)[C@H](CO)NC(=O)[C@H](Cc1ccccc1)NC(=O)[C@H](CO)NC(=O)CNC(=O)[C@H](CC(=O)O)NC(=O)C(C)(C)NC(=O)[C@@H](N)Cc1c[nH]cn1)[C@@H](C)O)[C@@H](C)CC)C(=O)N[C@@H](CC(N)=O)C(=O)N[C@@H](Cc1c[nH]c2ccccc12)C(=O)N[C@@H](CC(C)C)C(=O)N[C@H](C(=O)N[C@@H](CCC(N)=O)C(=O)N[C@H](C(=O)N[C@@H](CCCCN)C(N)=O)[C@@H](C)O)[C@@H](C)CC [Compound 10] (H-H[Aib]DGSFSDELNTILDGKAARDFINWLIQTK-NH2) | –
17 | 0.008 | – | H-HGEGTFTSDLSTILENKAARDFIEWLIQTKITD-OH [Compound 8] [listing 2 of 2 here] | –
18 | 0.2 | – | H-HGDGSFSSELATILDGQAARDFIAWLIQTKITD-OH [Compound 11] [listing 1 of 2 here] | –
19 | – | 0.34 | H-HGDGSFSSELATILDGQAARDFIAWLIQTKITD-OH [Compound 11] [listing 2 of 2 here] | –
20 | – | > 200 | CC[C@H](C)[C@H](NC(=O)[C@H](Cc1ccccc1)NC(=O)[C@H](CC(=O)O)NC(=O)[C@H](CCCNC(=N)N)NC(=O)[C@H](C)NC(=O)[C@H](C)NC(=O)[C@H](CC(C)C)NC(=O)[C@H](CC(N)=O)NC(=O)[C@H](CC(=O)O)NC(=O)[C@H](CC(C)C)NC(=O)[C@@H](NC(=O)[C@@H](NC(=O)[C@H](CC(N)=O)NC(=O)[C@H](CCSC)NC(=O)[C@H](CCC(=O)O)NC(=O)[C@H](CC(=O)O)NC(=O)[C@H](CO)NC(=O)[C@H](Cc1ccccc1)NC(=O)[C@H](CO)NC(=O)CNC(=O)[C@H](CC(=O)O)NC(=O)CNC(=O)[C@@H](N)Cc1c[nH]cn1)[C@@H](C)O)[C@@H](C)CC)C(=O)N[C@@H](CC(N)=O)C(=O)N[C@@H](Cc1c[nH]c2ccccc12)C(=O)N[C@@H](CC(C)C)C(=O)N[C@H](C(=O)N[C@@H](CCC(N)=O)C(=O)N[C@H](C(=O)N[C@@H](CCCCN)C(=O)N[C@H](C(=O)N[C@H](C(=O)N[C@@H](CC(=O)O)C(=O)O)[C@@H](C)O)[C@@H](C)CC)[C@@H](C)O)[C@@H](C)CC [GLP-2 (Gly2), reference compound] | –
21 | – | 18 | H-HGEGSFSSDLSTILEGKAARDFIEWLIQTKITD-OH [Compound 13] [listing 2 of 2 here] | –
